The source of these data is patent publication US20250051347A1, “BIFUNCTIONAL CHIMERIC HETEROCYCLIC COMPOUND AND USE THEREOF AS ANDROGEN RECEPTOR DEGRADER” (Hinova Pharmaceuticals, Inc., priority 2021, published 2025).

As a reminder, the DC50 is the midpoint of the concentration-degradation curve. Read a high DC50 as degradation only at high concentration.

The assay has as its target T1, androgen receptor (AR) splicing variant AR-v7 (Homo sapiens, UniProt P10275).
T1 construct: The degradation activity of compounds on AR-v7 in 22RV1 cells; host or cells: 22RV1 cells
T1 sequence (P10275 1-644 isoform P10275-3): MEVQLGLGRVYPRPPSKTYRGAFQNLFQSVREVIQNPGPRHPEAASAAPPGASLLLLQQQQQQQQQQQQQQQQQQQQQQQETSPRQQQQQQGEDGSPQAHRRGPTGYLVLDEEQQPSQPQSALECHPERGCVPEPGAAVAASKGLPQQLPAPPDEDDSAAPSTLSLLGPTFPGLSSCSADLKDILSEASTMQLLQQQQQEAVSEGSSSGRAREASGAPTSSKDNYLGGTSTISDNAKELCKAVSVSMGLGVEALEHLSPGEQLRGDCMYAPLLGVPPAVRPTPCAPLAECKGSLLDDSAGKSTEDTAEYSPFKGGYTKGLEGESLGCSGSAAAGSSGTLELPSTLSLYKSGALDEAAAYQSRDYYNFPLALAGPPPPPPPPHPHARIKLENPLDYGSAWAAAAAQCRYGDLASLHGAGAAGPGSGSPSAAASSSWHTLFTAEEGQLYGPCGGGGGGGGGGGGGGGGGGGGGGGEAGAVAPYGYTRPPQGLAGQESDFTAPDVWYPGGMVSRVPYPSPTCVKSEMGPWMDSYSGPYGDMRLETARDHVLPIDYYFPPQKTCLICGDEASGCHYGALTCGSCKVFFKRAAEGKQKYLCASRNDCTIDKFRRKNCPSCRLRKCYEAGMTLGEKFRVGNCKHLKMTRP
The assay is described as follows: Degradation activity on androgen receptor splicing variant AR-v7 in 22RV1 cells (ELISA). The format is cell-based. To be noted: AR-v7 degradation in 22RV1 cells, 48 h. In general terms: An ELISA detects its analyte on a solid surface through an enzyme-linked reagent.

Structures are written as SMILES. Some results are limits rather than exact numbers.

For the setting “class symbols”, `Cc1nc(-c2ncc(Oc3ccc(C(C)(C)c4ccc(O[C@H]5C[C@H](Nc6ccc7c(c6)C(=O)N(C6CCC(=O)NC6=O)C7=O)C5)cc4)cc3)cc2C(F)(F)F)no1` (some centres unmarked) [Example 211] came in with a DC50 of 11 to 100 nM. Regarding `Cc1nc(-c2ccc(Oc3ccc(C(C)(C)c4ccc(O[C@H]5C[C@@H](Nc6ccc7c(c6)C(=O)N(C6CCC(=O)NC6=O)C7=O)C5)cc4)cc3)nc2)no1` (some centres unmarked) [Example 213], the DC50 (class symbols) was in the range of 11 to 100 nM. For `CC(C)(c1ccc(Oc2ccc(N3CC4(COC4)C3)nc2)cc1)c1ccc(O[C@H]2C[C@H](Nc3ccc4c(c3)C(=O)N(C3CCC(=O)NC3=O)C4=O)C2)cc1` (some centres unmarked) [Example 214], where the note is “class symbols”, the 50% degradation concentration (DC50) was 11 to 100 nM.

Regarding `CC(C)(c1ccc(Oc2cnc(N)nn2)cc1)c1ccc(O[C@H]2C[C@H](Nc3ccc4c(c3)C(=O)N(C3CCC(=O)NC3=O)C4=O)C2)cc1` (some centres unmarked) [Example 215], the DC50 (class symbols) was 11 to 100 nM. On the same count and under the same terms, in the case of `Cc1nnc(-c2ccc(Oc3ccc(C(C)(C)c4ccc(O[C@H]5C[C@H](Nc6ccc7c(c6)C(=O)N(C6CCC(=O)NC6=O)C7=O)C5)cc4)cc3)nc2)o1` (some centres unmarked) [Example 216] it was 11 to 100 nM. Same read-out and setting: next, `Cc1nc(COc2ccc(C(C)(C)c3ccc(OCCCNc4cccc5c4C(=O)N(C4CCC(=O)NC4=O)C5=O)cc3)cc2)cs1` (centres unmarked) [Example 224, 2-(2,6-dioxopiperidin-3-yl)-4-((3-(4-(2-(4-((2-methylthiazol-4-yl)methoxy)phenyl)propan-2-yl)phenoxy)propyl)amino)isoindolin-1,3-dione]: 101 to 1000 nM.

Take `CC(C)(c1ccc(OCCCCCCCCOCCCCNc2ccc3c(c2)C(=O)N(C2CCC(=O)NC2=O)C3=O)cc1)c1ccc(OCc2ccnc(Nc3ncco3)n2)cc1` (centres unmarked) [Example 226]: for the setting “numeric values”, the DC50 was greater than 10000 nM. The same measure, in the same setting: in the case of `C=CC(=O)Nc1nccc(COc2ccc(C(C)(C)c3ccc(OCCCCCCCCOCCN4CCN(c5ccc6c(c5)C(=O)N(C5CCC(=O)NC5=O)C6=O)CC4)cc3)cc2)n1` (centres unmarked) [Example 227] it was greater than 10000 nM. For the compound `CN1CCC(Oc2nccc(COc3ccc(C(C)(C)c4ccc(O[C@H]5C[C@@H](Nc6ccc7c(c6)C(=O)N(C6CCC(=O)NC6=O)C7=O)C5)cc4)cc3)n2)CC1` (some centres unmarked) [Example 234], the DC50 (class symbols) lay in the range of 11 to 100 nM. Consider `CC(C)(c1ccc(OCc2ccnc(OC3CCN(C(=O)OCc4ccccc4)CC3)n2)cc1)c1ccc(O[C@H]2C[C@@H](Nc3ccc4c(c3)C(=O)N(C3CCC(=O)NC3=O)C4=O)C2)cc1` (some centres unmarked) [Example 235], for which, for the setting “class symbols”, the DC50 was in the range of 101 to 1000 nM. `CC(C)(c1ccc(OCc2ccnc(OC3CCNCC3)n2)cc1)c1ccc(O[C@H]2C[C@@H](Nc3ccc4c(c3)C(=O)N(C3CCC(=O)NC3=O)C4=O)C2)cc1` (some centres unmarked) [Example 236] registered a DC50 (class symbols) of 11 to 100 nM. On the same count and under the same terms, in the case of `CN(C)[C@H]1CCN(c2nccc(COc3ccc(C(C)(C)c4ccc(O[C@H]5C[C@@H](Nc6ccc7c(c6)C(=O)N(C6CCC(=O)NC6=O)C7=O)C5)cc4)cc3)n2)C1` (some centres unmarked) [Example 238] it was 11 to 100 nM. Same read-out and setting: in the case of `CC(C)(c1ccc(OCc2ccnc(N3CCN(CCO)CC3)n2)cc1)c1ccc(O[C@H]2C[C@@H](Nc3ccc4c(c3)C(=O)N(C3CCC(=O)NC3=O)C4=O)C2)cc1` (some centres unmarked) [Example 241, 2-(2,6-dioxopiperidin-3-yl)-5-(((1s,3s)-3-(4-(2-(4-((2-(4-(2-hydroxylethyl)piperazin-1-yl)pyrimidin-4-yl)methoxy)phenyl)propan-2-yl)phenoxy)cyclobutyl)amino)isoindolin-1,3-dione] it was 11 to 100 nM; in that of `CN1CC[C@@H](Oc2nccc(COc3ccc(C(C)(C)c4ccc(O[C@H]5C[C@@H](Nc6ccc7c(c6)C(=O)N(C6CCC(=O)NC6=O)C7=O)C5)cc4)cc3)n2)C1` (some centres unmarked) [Example 243], less than 10 nM.

For `CC(C)(c1ccc(OCc2ccnc(NC#N)n2)cc1)c1ccc(O[C@H]2C[C@H](Nc3ccc4c(c3)C(=O)N(C3CCC(=O)NC3=O)C4=O)C2)cc1` (some centres unmarked) [Example 245, N-(4-((4-(2-(4-((1s,3s)-3-((2-(2,6-dioxopiperidin-3-yl)-1,3-dioxoisoindolin-5-yl)amino)cyclobutyloxy)phenyl)propan-2-yl)phenoxy)methyl)pyrimidin-2-yl)cyanamide], the DC50 (class symbols) lay in the range of 101 to 1000 nM.

For the setting “class symbols”, `CC(C)(c1ccc(Oc2nc(N3CC4(COC4)C3)ncc2F)cc1)c1ccc(O[C@H]2C[C@H](Nc3ccc4c(c3)C(=O)N(C3CCC(=O)NC3=O)C4=O)C2)cc1` (some centres unmarked) [Example 247] showed a DC50 of 11 to 100 nM. On the same count and under the same terms, next, `Cc1noc(-c2nccc(COc3ccc(C(C)(C)c4ccc(O[C@H]5C[C@H](Nc6ccc7c(c6)C(=O)N(C6CCC(=O)NC6=O)C7=O)C5)cc4)cc3)n2)n1` (some centres unmarked) [Example 250]: 11 to 100 nM. Where the note is “class symbols”, `CC(C)(c1ccc(OCc2ccnc(-c3ncno3)n2)cc1)c1ccc(O[C@H]2C[C@@H](Nc3ccc4c(c3)C(=O)N(C3CCC(=O)NC3=O)C4=O)C2)cc1` (some centres unmarked) [Example 252] returned a DC50 of 1000 to 5000 nM. The same measure, in the same setting: in the case of `CC(C)(c1ccc(OCc2cccc(-n3cccn3)n2)cc1)c1ccc(O[C@H]2C[C@H](Nc3ccc4c(c3)C(=O)N(C3CCC(=O)NC3=O)C4=O)C2)cc1` (some centres unmarked) [Example 253] it was 11 to 100 nM; in that of `Cc1nnc(-c2ccnc(Oc3ccc(C(C)(C)c4ccc(O[C@H]5C[C@H](Nc6ccc7c(c6)C(=O)N(C6CCC(=O)NC6=O)C7=O)C5)cc4)cc3)c2)o1` (some centres unmarked) [Example 257], 11 to 100 nM. Take `CC(C)(c1ccc(OCc2ccnc(N3C[C@@H]4C[C@H]3CN4)n2)cc1)c1ccc(O[C@H]2C[C@@H](Nc3ccc4c(c3)C(=O)N(C3CCC(=O)NC3=O)C4=O)C2)cc1` (stereo partly drawn) [Example 260, 5-(((1s,3s)-3-(4-(2-(4-((2-((1S,4S)-2,5-diazabicyclo[2.2.1]heptan-2-yl)pyrimidin-4-yl)methoxy)phenyl)propan-2-yl)phenoxy)cyclobutyl)amino)-2-(2,6-dioxopiperidin-3-yl)isoindolin-1,3-dione]: the DC50 (class symbols) is 11 to 100 nM. Still for that read-out and setting: next, `CC(C)(c1ccc(Oc2cnc(C(O)C3CCC3)nc2)cc1)c1ccc(O[C@H]2C[C@H](Nc3ccc4c(c3)C(=O)N(C3CCC(=O)NC3=O)C4=O)C2)cc1` (some centres unmarked) [Example 261]: less than 10 nM; `CC(C)(c1ccc(Oc2cnc(C(=O)C3CCC3)nc2)cc1)c1ccc(O[C@H]2C[C@H](Nc3ccc4c(c3)C(=O)N(C3CCC(=O)NC3=O)C4=O)C2)cc1` (some centres unmarked) [Example 262]: 11 to 100 nM. Regarding `Cc1noc(-c2ncc(Oc3ccc(C(C)(C)c4ccc(O[C@H]5C[C@@H](Nc6ccc7c(c6)C(=O)N(C6CCC(=O)NC6=O)C7=O)C5)cc4)cc3)cn2)n1` (some centres unmarked) [Example 263], the DC50 (class symbols) fell in the range of 11 to 100 nM. `CC(C)(c1ccc(Oc2cnc(C(F)(F)F)nc2)cc1)c1ccc(O[C@H]2C[C@H](Nc3ccc4c(c3)C(=O)N(C3CCC(=O)NC3=O)C4=O)C2)cc1` (some centres unmarked) [Example 264] came in with a DC50 (class symbols) of 11 to 100 nM. On the same count and under the same terms, in the case of `COC(=O)c1ncc(Oc2ccc(C(C)(C)c3ccc(O[C@H]4C[C@H](Nc5ccc6c(c5)C(=O)N(C5CCC(=O)NC5=O)C6=O)C4)cc3)cc2)cn1` (some centres unmarked) [Example 266, methyl 5-(4-(2-(4-((1r,3r)-3-((2-(2,6-dioxopiperidin-3-yl)-1,3-dioxoisoindolin-5-yl)amino)cyclobutyloxy)phenyl)propan-2-yl)phenoxy)pyrimidin-2-carboxylate] it was 11 to 100 nM. The same measure, in the same setting: in the case of `CC(C)(c1ccc(Oc2cnc(C(=O)O)nc2)cc1)c1ccc(O[C@H]2C[C@H](Nc3ccc4c(c3)C(=O)N(C3CCC(=O)NC3=O)C4=O)C2)cc1` (some centres unmarked) [Example 267, 5-(4-(2-(4-((1r,3r)-3-((2-(2,6-dioxopiperidin-3-yl)-1,3-dioxoisoindolin-5-yl)amino)cyclobutyloxy)phenyl)propan-2-yl)phenoxy)pyrimidin-2-carboxylic acid] it was 101 to 1000 nM; in that of `CC1(CNc2nccc(COc3ccc(C(C)(C)c4ccc(O[C@H]5C[C@@H](Nc6ccc7c(c6)C(=O)N(C6CCC(=O)NC6=O)C7=O)C5)cc4)cc3)n2)COC1` (some centres unmarked) [Example 269], 101 to 1000 nM; in that of `Cc1noc(C)c1-c1nccc(COc2ccc(C(C)(C)c3ccc(O[C@H]4C[C@H](Nc5ccc6c(c5)C(=O)N(C5CCC(=O)NC5=O)C6=O)C4)cc3)cc2)n1` (some centres unmarked) [Example 271], 11 to 100 nM. On the same count and under the same terms, next, `CC(C)(c1ccc(OCc2ccnc(-c3cncs3)n2)cc1)c1ccc(O[C@H]2C[C@H](Nc3ccc4c(c3)C(=O)N(C3CCC(=O)NC3=O)C4=O)C2)cc1` (some centres unmarked) [Example 272]: 11 to 100 nM; `CC(C)(c1ccc(OCc2ccnc(-c3cc[nH]n3)n2)cc1)c1ccc(O[C@H]2C[C@@H](Nc3ccc4c(c3)C(=O)N(C3CCC(=O)NC3=O)C4=O)C2)cc1` (some centres unmarked) [Example 274]: 11 to 100 nM. Under “class symbols”, `Cc1nc(-c2cccc(COc3ccc(C(C)(C)c4ccc(O[C@H]5C[C@H](Nc6ccc7c(c6)C(=O)N(C6CCC(=O)NC6=O)C7=O)C5)cc4)cc3)n2)no1` (some centres unmarked) [Example 283] displayed a DC50 of 11 to 100 nM. On the same count and under the same terms, in the case of `CC(C)(c1ccc(OCc2nc(-n3nccn3)ccc2F)cc1)c1ccc(O[C@H]2C[C@H](Nc3ccc4c(c3)C(=O)N(C3CCC(=O)NC3=O)C4=O)C2)cc1` (some centres unmarked) [Example 284] it was 11 to 100 nM; in that of `CC(C)(c1ccc(OCc2nc(-n3ccnn3)ccc2F)cc1)c1ccc(O[C@H]2C[C@H](Nc3ccc4c(c3)C(=O)N(C3CCC(=O)NC3=O)C4=O)C2)cc1` (some centres unmarked) [Example 285], 11 to 100 nM. The same measure, in the same setting: in the case of `CC(C)(c1ccc(OCc2ccc(F)c(-n3ccnn3)n2)cc1)c1ccc(O[C@H]2C[C@H](Nc3ccc4c(c3)C(=O)N(C3CCC(=O)NC3=O)C4=O)C2)cc1` (some centres unmarked) [Example 286] it was 11 to 100 nM.
